US12534449B2, “Stable crystalline hydrate of clazosentan disodium salt” (Idorsia Pharmaceuticals Ltd, priority 2020, dated 2026)
Where a name gives a salt, the structure may show the parent alone.

Assays:
[1] = Solubility of COMPOUND in water; settings: room temperature
[2] = Gravimetric vapor sorption (GVS) analysis; type: physicochemical; settings: for behaviour of water content with relative humidity (GVS): humidity scan; for water content (GVS) in equivalents of water: equilibrium / final water content
Description: Gravimetric vapor sorption analysis of form C was performed on a Hiden Isochema IGAsorp™ Model HAS-036-080. Approximately 20 mg of the sample was placed without any pre-treatment into a stainless-steel mesh sample holder. The measurement was run at 25° C. with changing the humidity in the order 40%-95%-0%-40% RH by steps of 5% RH and with maximum equilibration time of 24 h at each step. Gravimetric vapor sorption experiments for all the other hydrates disclosed herein were performed on a SPS 100n instrument from ProUmid GmbH & Co. KG. Typically, 10-20 mg of material were placed into tared aluminum pans without any pre-treatment. The measurements were again run at 25° C. and with changing the humidity in the order 20%-90%-0%-25% RH by steps of 5% and with maximum equilibration time of 24 h at each step. When plotting the data (see corresponding Figures), weight changes of one equivalent of water are indicated by dotted horizontal lines.

Structure (SMILES)	behaviour of water content with relative humidity (GVS) ([2]; 25° C.)	water content (GVS) in equivalents of water [2]	hydrate stoichiometry attributed from GVS water content / uptake ([2]; 25° C.)	further results
COc1ccccc1Oc1c(NS(=O)(=O)c2ccc(C)cn2)nc(-c2ccnc(-c3nnn[nH]3)c2)nc1OCCO [COMPOUND, 5-methyl-pyridine-2-sulfonic acid N-{6-(2-hydroxy-ethoxy)-5-(2-methoxy-phenoxy)-2-[2-(1H-tetrazol-5-yl)-pyridin-4-yl]-pyrimidin-4-yl}-amide disodium salt]				solubility in water [1]: about 25 g in 100 mL
COc1ccccc1Oc1c([N-]S(=O)(=O)c2ccc(C)cn2)nc(-c2ccnc(-c3nnn[n-]3)c2)nc1OCCO.[Na+].[Na+] [form C]	stable with a slight increase between 5% and 95% RH			behaviour of water content below 5% RH (GVS) ([2]; 25° C., below 5% RH): decreases dramatically; water content at the starting point (GVS) ([2]; 40% RH, 25° C., dry basis): 14%
COc1ccccc1Oc1c([N-]S(=O)(=O)c2ccc(C)cn2)nc(-c2ccnc(-c3nnn[n-]3)c2)nc1OCCO.[Na+].[Na+] [form E]		approx. 1 equivalents		water content at equilibrium (GVS scan) ([2]; 25° C.): 3%
COc1ccccc1Oc1c([N-]S(=O)(=O)c2ccc(C)cn2)nc(-c2ccnc(-c3nnn[n-]3)c2)nc1OCCO.[Na+].[Na+] [form L]		3 equivalents		final water content (GVS experiment) ([2]; dried at 0% RH, then re-humidified at 40% RH): about 8%
COc1ccccc1Oc1c([N-]S(=O)(=O)c2ccc(C)cn2)nc(-c2ccnc(-c3nnn[n-]3)c2)nc1OCCO.[Na+].[Na+] [form N]	noticeable adsorption of excess water with increasing relative humidity		tetrahydrate	
COc1ccccc1Oc1c([N-]S(=O)(=O)c2ccc(C)cn2)nc(-c2ccnc(-c3nnn[n-]3)c2)nc1OCCO.[Na+].[Na+] [form P]			trihydrate	
